Earlier results as cited in patent US7476743B2, “Compounds, compositions, and methods” (Cytokinetics, Inc., priority 2002, dated 2009).

System: A549 cells
Conditions: data provided by National Cancer Institute
For CC(=O)O[C@H]1C(=O)[C@@]2(C)[C@H]([C@H](OC(=O)c3ccccc3)[C@]3(O)C[C@H](OC(=O)[C@H](O)[C@@H](NC(=O)c4ccccc4)c4ccccc4)C(C)=C1C3(C)C)[C@]1(OC(C)=O)CO[C@@H]1C[C@@H]2O [paclitaxel], the GI50 is given as 4 nM.
For O=c1[nH]cc(F)c(=O)[nH]1 [5-fluorouracil], the GI50 is listed as 1000 nM.
In the case of NC(=O)NO [hydroxyurea], the GI50 is listed as 500000 nM.
For COc1cccc2c1C(=O)c1c(O)c3c(c(O)c1C2=O)C[C@@](O)(C(=O)CO)C[C@@H]3O[C@H]1C[C@H](N)[C@H](O)[C@H](C)O1 [doxorubicin], the GI50 is listed as 63 nM.
